# From patent publication US11345762B2, “Method for preparing liquid medium composition, and preparation device and kit therefor” (NISSAN CHEMICAL INDUSTRIES, LTD., priority 2015, dated 2022)
# B1: human PDGF-BB: growth factor, manufactured by PEPROTECH (protein, UniProt P01127 82-190, looked up)
# Platelet-derived growth …: SLGSLTIAEPAMIAECKTRTEVFEISRRLIDRTNANFLVWPPCVEVQRCSGCCNNRNVQCRPTQVQLRPVQVRKIEIVRKKPIFKKATVTLEDHLACKCETVAAARPVT
# modifications: homodimer
# notes: growth factor, manufactured by PEPROTECH
# B2: human HB-EGF: growth factor, manufactured by PEPROTECH (protein, UniProt Q99075 63-148, looked up)
# Heparin-binding EGF-like …: DLQEADLDLLRVTLSSKPQALATPNKEEHGKRKKKGKGLGKKRDPCLRKYKDFCIHGECKYVKELRAPSCICHPGYHGERCHGLSL
# Test system: Human pancreatic cancer cell line Panc02,03
# Assay: Proliferation action on Panc02,03 cell stimulated by each growth factor (ATP, CellTiter-Glo)
# Assay type: cell-based
# Conditions: for efficacy in Panc02,03 cell proliferation test using the medium composition by the production method of the present invention (in words): compared to a monolayer culture method and negative control group
# [1] = Panc02,03, 10 ng/mL, medium composition of Example 13, on day 6 (head)
# [2] = Panc02,03, 10 ng/mL, monolayer culture group, culture conditions on day 6 (head)
# [3] = Panc02,03, 10 ng/mL, negative control group (medium free of deacylated gellan gum, low adhesion plate), on day 6 (head)
# [4] = Panc02,03, 100 ng/mL, medium composition of Example 13, on day 6 (head)
# [5] = Panc02,03, 100 ng/mL, monolayer culture group, culture conditions on day 6 (head)
# [6] = Panc02,03, 100 ng/mL, negative control group (medium free of deacylated gellan gum, low adhesion plate), on day 6 (head)
# [7] = Panc02,03, 30 ng/mL, medium composition of Example 13, on day 6 (head)
# [8] = Panc02,03, 30 ng/mL, monolayer culture group, culture conditions on day 6 (head)
# [9] = Panc02,03, 30 ng/mL, negative control group (medium free of deacylated gellan gum, low adhesion plate), on day 6 (head)
Molecule,"% control of RLU value (ATP measurement, luminescence intensity) [1]","% control of RLU value (ATP measurement, luminescence intensity) [2]","% control of RLU value (ATP measurement, luminescence intensity) [3]","% control of RLU value (ATP measurement, luminescence intensity) [4]","% control of RLU value (ATP measurement, luminescence intensity) [5]","% control of RLU value (ATP measurement, luminescence intensity) [6]","% control of RLU value (ATP measurement, luminescence intensity) (Panc02,03, 3 ng/mL, medium composition of Example 13, on day 6 (head))","% control of RLU value (ATP measurement, luminescence intensity) (Panc02,03, 3 ng/mL, monolayer culture group, culture conditions on day 6 (head))","% control of RLU value (ATP measurement, luminescence intensity) (Panc02,03, 3 ng/mL, negative control group (medium free of deacylated gellan gum, low adhesion plate), on day 6 (head))","% control of RLU value (ATP measurement, luminescence intensity) [7]","% control of RLU value (ATP measurement, luminescence intensity) [8]","% control of RLU value (ATP measurement, luminescence intensity) [9]","efficacy in Panc02,03 cell proliferation test using the medium composition by the production method of the present invention (in words)"
"human IGF-1: growth factor, manufactured by PEPROTECH",100 % Control,101 % Control,119 % Control,110 % Control,98 % Control,121 % Control,–,–,–,–,–,–,–
"human EGF: growth factor, manufactured by PEPROTECH",–,–,–,–,–,–,108 % Control,105 % Control,117 % Control,187 % Control,97 % Control,136 % Control,strongly shown
B1,101 % Control,98 % Control,128 % Control,–,–,–,–,–,–,–,–,–,–
B2,–,–,–,202 % Control,98 % Control,134 % Control,–,–,–,118 % Control,99 % Control,132 % Control,strongly shown
